From PubChem BioAssay AID1645867 (Buhrlage Lab, Dana-Farber Cancer Institute and Novartis …, 2021)
Active and inactive are the calls of the source. No rule for the calls is given here.

Biological target: Ubiquitin carboxyl-terminal hydrolase isozyme L1 (Homo sapiens) (UniProt P09936)
Assay: biochemical concentration-response of UCH-L1 DUB inhibitors, hit verification (AID 1645867)
Conditions: recombinant UCHL1 deubiquitinase activity assay

Ubiquitin carboxyl-terminal hydrolase isozyme L1 (Homo sapiens), sequence (P09936 whole entry, looked up): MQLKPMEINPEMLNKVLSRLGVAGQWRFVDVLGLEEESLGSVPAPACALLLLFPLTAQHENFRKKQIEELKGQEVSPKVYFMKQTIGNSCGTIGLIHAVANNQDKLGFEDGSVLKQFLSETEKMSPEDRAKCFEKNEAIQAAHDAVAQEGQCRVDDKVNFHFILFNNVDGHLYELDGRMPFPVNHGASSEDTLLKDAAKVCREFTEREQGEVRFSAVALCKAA

Row | IC50 | Structure (SMILES)
1 | > 25 µM (inactive) | CC[C@H](C)[C@H](NC(=O)[C@H]([C@@H](C)CC)N(C)C(C)=O)C(=O)N[C@H](C(=O)N[C@@H](CC(C)C)C(=O)C1(C)CO1)[C@@H](C)O (some centres undefined)
2 | > 25 µM (inactive) | O=C(COc1ccc(Cl)cc1Cl)Nc1ccccc1-c1nc2ccccc2[nH]1
3 | > 25 µM (inactive) | O=C(COc1ccc(Cl)cc1)Nc1noc(-c2cccs2)n1
4 | > 25 µM (inactive) | COc1ccc(NC(=O)Cn2c(=O)n(CCC(=O)NCc3ccccc3)c(=O)c3sccc32)cc1Cl
5 | > 25 µM (inactive) | CC1OC2CC(=O)OC2C2=C1C(=O)c1c(O)cccc1C2=O (centres undefined)
6 | > 25 µM (inactive) | Cc1ccc2cc(-c3noc(CCC(=O)NC4CCCC4)n3)c(=O)[nH]c2c1
7 | 18.9 µM | COC(=O)C1(Cc2ccc(O)cc2)OC(=O)C(O)=C1c1ccc(O)cc1 (centres undefined)
8 | > 25 µM (inactive) | CCN1C(=O)c2ccccc2C(=O)[C@@]2(C)CN(C(=O)c3ccccc3)C[C@@H]12
9 | > 25 µM (inactive) | COc1ccc(C(=O)COC(=O)c2ccccc2NS(=O)(=O)c2ccc(O)c([N+](=O)[O-])c2)cc1
10 | > 25 µM (inactive) | Nc1ccc(F)c(NS(=O)(=O)c2ccccc2)c1
11 | > 25 µM (inactive) | O=C(c1cncs1)N1CCc2[nH]nc(Nc3ccccc3)c2C1
12 | > 25 µM (inactive) | CCOc1ccccc1C1CC(=O)Nc2ccc3ccccc3c21 (centres undefined)
13 | > 25 µM (inactive) | COc1cc(O)cc2c1C(=O)OC(C)CCCCCCC2 (centres undefined)
14 | > 25 µM (inactive) | CCOc1ccc(-c2nnc(NC(=O)C3CCN(S(=O)(=O)c4ccc5c(c4)CCC5)CC3)o2)cc1
15 | > 25 µM (inactive) | Cc1ccc(S(=O)(=O)NCc2ccc(C(=O)NCCc3ccc(S(N)(=O)=O)cc3)cc2)cc1
16 | > 25 µM (inactive) | COc1ccccc1-c1nc(-c2cn(-c3ccc(F)cc3)nn2)no1
17 | > 25 µM (inactive) | CCC(C)Nc1ncnc2c1CN(C1CCCNCC1)C(=O)CN2C (centres undefined)
18 | > 25 µM (inactive) | CC(C)c1cc(C2CCCN2C(=O)Cc2ccc(Cl)cc2)no1 (centres undefined)
19 | 17.1 µM | N#Cc1cccc(NC(=O)Nc2cccn(Cc3ccccc3F)c2=O)c1
20 | > 25 µM (inactive) | CCOc1ccc(-n2ccnc(SCC(=O)Nc3ccccc3F)c2=O)cc1
21 | > 25 µM (inactive) | O=C1NC2(CCCc3ccccc32)C(=O)N1Cc1csc(-c2ccccc2)n1 (centres undefined)

Row | IC50 | Structure (SMILES)
22 | > 25 µM (inactive) | O=C(NC1CC2(CCOCC2)Oc2ccccc21)c1cnccn1 (centres undefined)
23 | > 25 µM (inactive) | CCC(Sc1cccc(NC(=O)C2CCCCC2)c1)C(=O)Nc1cc([N+](=O)[O-])ccc1C (centres undefined)
24 | > 25 µM (inactive) | Cc1ccc(-n2c(=O)[nH]c3c(C(N)=O)nc(-c4ccc(OCc5ccccc5)cc4)nc32)cc1
25 | > 25 µM (inactive) | Cc1ccc(-n2cc(C(=O)NCCCc3ccccc3)nn2)cc1
26 | > 25 µM (inactive) | O=C(CSc1ccc(-c2cccc([N+](=O)[O-])c2)nn1)Nc1cccc(F)c1
27 | > 25 µM (inactive) | C(=C\c1nc(-c2cccc(-c3ccn[nH]3)c2)no1)/c1ccco1
28 | > 25 µM (inactive) | Cc1ccc(NC(=O)c2nnn(CC(=O)Nc3cccc(C)c3C)c2N)cc1C
29 | > 25 µM (inactive) | O=c1[nH]cccc1NS(=O)(=O)c1ccc(F)cc1
30 | > 25 µM (inactive) | CC(Oc1ccc(F)cc1)c1nnc(C2(c3ccc(F)cc3)CCOCC2)o1 (centres undefined)
31 | > 25 µM (inactive) | Cc1ccccc1NC(=O)Cn1cc(S(=O)(=O)Cc2ccccc2)c2ccccc21
32 | > 25 µM (inactive) | O=C(C1CCCCC1)N1CCN(c2nc3c(F)cccc3s2)CC1
33 | > 25 µM (inactive) | CCc1ccc(NC(=O)C2CCN(c3nc4nc[nH]c(=O)c4s3)CC2)cc1
34 | > 25 µM (inactive) | Cc1ccc(/C=C/C(=O)c2oc3ccc(F)cc3c2C)cc1
35 | > 25 µM (inactive) | Cc1ccccc1NC(=O)Nc1ccccc1OCc1cc(=O)n2cccc(C)c2n1
36 | > 25 µM (inactive) | O=C1NC[C@@H](CCC(=O)N2CCCC2)N2C[C@@H](NCc3ccccc3)C[C@@H]12
37 | > 25 µM (inactive) | O=C(COc1ccc(N2CC(C(=O)NCc3ccc4c(c3)OCO4)CC2=O)cc1)Nc1ccc(F)cc1 (centres undefined)
38 | > 25 µM (inactive) | O=C(OCC(=O)N1CCOCC1)c1ccccc1OCc1ccccc1Cl
39 | > 25 µM (inactive) | CC(C)(C)n1ncc2c(=O)n(CC(=O)N3CCCc4ccccc43)cnc21
40 | > 25 µM (inactive) | Cn1c(=O)c2c3c(cnc2n(C)c1=O)C(=O)CC(c1ccccc1)C3 (centres undefined)
41 | > 25 µM (inactive) | O=C(CCc1nc2sc3c(c2c(=O)[nH]1)CCCCC3)Nc1ccc(F)cc1F
42 | > 25 µM (inactive) | Cc1cc(C)cc(NC(=O)C2C3C=CC4(O3)C2C(=O)N(C2CCCCC2)C4C(=O)NC2CCCCC2)c1 (centres undefined)

Row | IC50 | Structure (SMILES)
43 | > 25 µM (inactive) | Cc1nc(-c2ccccn2)sc1C(=O)/C=C/c1ccccc1
44 | 1.97 µM | O=C1c2ccccc2C(=O)c2c(O)c(O)cc(O)c21
45 | > 25 µM (inactive) | CSc1ccc([C@H]2[C@@H](C(=O)O)c3ccccc3C(=O)N2Cc2ccc(F)cc2)cc1
46 | > 25 µM (inactive) | O=C1CC(c2ccccc2O)Oc2ccccc21 (centres undefined)
47 | 12.7 µM | O=c1ccc(-c2cc3ccccc3o2)cn1Cc1ccccc1-c1ccccc1
48 | > 25 µM (inactive) | O=C(Nc1cccc(F)c1)N1C[C@@H]2c3nccn3-c3ccccc3[C@@H]2C1
49 | > 25 µM (inactive) | COc1ccc(NC(=O)Cn2c(=O)n(-c3ccc(CC(=O)NCc4ccco4)cc3)c(=O)c3ccccc32)cc1Cl
50 | > 25 µM (inactive) | Cc1cccc(NC(=O)N2C[C@@H]3c4nccn4-c4ccccc4[C@@H]3C2)c1
51 | > 25 µM (inactive) | COc1ccc2c(CNCCC3=CCCCC3)c(C(=O)O)n(Cc3ccc(F)cc3)c2c1
52 | > 25 µM (inactive) | CCOc1ccc2c(c1)c(=O)c(C(=O)c1ccc(C)cc1)cn2CC(=O)Nc1ccc(C)cc1
53 | > 25 µM (inactive) | CS(=O)(=O)n1nc(NCc2ccc(F)cc2)nc1NCc1ccc(F)cc1
54 | > 25 µM (inactive) | CCOC(=O)c1ccc(Oc2sccc2[N+](=O)[O-])cc1
55 | > 25 µM (inactive) | O=C(COc1ccc(Cl)cc1Cl)Nc1ccc2[nH]c(=O)[nH]c2c1
56 | > 25 µM (inactive) | CSc1ncccc1C(=O)OCc1ccccc1
57 | > 25 µM (inactive) | O=C(Nc1nc2ccccc2s1)C1CC(=O)N(c2ccccc2)C1 (centres undefined)
58 | > 25 µM (inactive) | Cn1c(=O)c(N2CCOCC2)nc2c(OCc3ccccc3)nc(N)nc21
59 | > 25 µM (inactive) | COc1cn(CC(=O)Nc2ccc(Cl)cc2)c(CSc2ccccc2)cc1=O
60 | > 25 µM (inactive) | CCc1cccc(CC)c1NC(=O)COC(=O)c1cc2cccc(OC)c2oc1=O
61 | > 25 µM (inactive) | Cc1ccc(C)c(NC(=O)Cn2cc(C(=O)C3CC3)c3ccccc32)c1
62 | > 25 µM (inactive) | CCC(C(=O)Nc1ncc2c(n1)CC(c1ccccc1)CC2=O)c1ccccc1 (centres undefined)
63 | > 25 µM (inactive) | Cc1cccc(NC(=O)Cn2cccc(S(=O)(=O)N3CCC(C)CC3)c2=O)c1C

Row | Structure (SMILES) | IC50
64 | COc1cccc2c1NC(=O)C21CCN(C(=O)Nc2cccc3ccccc23)CC1 | > 25 µM (inactive)
